Laboratory results taken from the supplement of paper PMC11451515.

Test system: P12-Ichikawa
Test: cell viability relative to DMSO control; higher = less cytotoxic
Details: 48 h
Outline: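 Viability was expressed as a per-plate percentage of DMSO wells, with cell-free wells as background. Leukemia cells (NOMO1 or SEM at 500 cells/well, P12-Ichikawa at 1000 cells/well) were adapted for at least four passages in each medium and seeded in 1536-well plates (5 μl). Library compounds in DMSO were pin-dosed over an 11-point threefold series from 47 μM to 0.79 nM, and CellTiter-Glo One luminescence was read after 48 h at 37°C.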

[1] = HPLM + 10% dialyzed FBS, 0.000781 µM
[2] = HPLM + 10% dialyzed FBS, 0.00234 µM
[3] = HPLM + 10% dialyzed FBS, 0.00702 µM
[4] = HPLM + 10% dialyzed FBS, 0.0211 µM
[5] = HPLM + 10% dialyzed FBS, 0.0632 µM
[6] = HPLM + 10% dialyzed FBS, 0.19 µM
[7] = HPLM + 10% dialyzed FBS, 0.569 µM
[8] = HPLM + 10% dialyzed FBS, 1.71 µM
[9] = HPLM + 10% dialyzed FBS, 5.12 µM
[10] = HPLM + 10% dialyzed FBS, 15.4 µM
[11] = HPLM + 10% dialyzed FBS, 46.1 µM
[12] = RPMI 5 mM glucose + 10% FBS, 0.000781 µM
[13] = RPMI 5 mM glucose + 10% FBS, 0.00234 µM
[14] = RPMI 5 mM glucose + 10% FBS, 0.00702 µM
[15] = RPMI 5 mM glucose + 10% FBS, 0.0211 µM
[16] = RPMI 5 mM glucose + 10% FBS, 0.0632 µM
[17] = RPMI 5 mM glucose + 10% FBS, 0.19 µM
[18] = RPMI 5 mM glucose + 10% FBS, 0.569 µM
[19] = RPMI 5 mM glucose + 10% FBS, 1.71 µM
[20] = RPMI 5 mM glucose + 10% FBS, 5.12 µM
[21] = RPMI 5 mM glucose + 10% FBS, 15.4 µM
[22] = RPMI 5 mM glucose + 10% FBS, 46.1 µM
[23] = RPMI 5 mM glucose + 10% dialyzed FBS, 0.000781 µM
[24] = RPMI 5 mM glucose + 10% dialyzed FBS, 0.00234 µM
[25] = RPMI 5 mM glucose + 10% dialyzed FBS, 0.00702 µM
[26] = RPMI 5 mM glucose + 10% dialyzed FBS, 0.0211 µM
[27] = RPMI 5 mM glucose + 10% dialyzed FBS, 0.0632 µM
[28] = RPMI 5 mM glucose + 10% dialyzed FBS, 0.19 µM
[29] = RPMI 5 mM glucose + 10% dialyzed FBS, 0.569 µM
[30] = RPMI 5 mM glucose + 10% dialyzed FBS, 1.71 µM
[31] = RPMI 5 mM glucose + 10% dialyzed FBS, 5.12 µM
[32] = RPMI 5 mM glucose + 10% dialyzed FBS, 15.4 µM
[33] = RPMI 5 mM glucose + 10% dialyzed FBS, 46.1 µM

| Structure (SMILES) | cell viability [1] [%] | cell viability [2] [%] | cell viability [3] [%] | cell viability [4] [%] | cell viability [5] [%] | cell viability [6] [%] | cell viability [7] [%] | cell viability [8] [%] | cell viability [9] [%] | cell viability [10] [%] | cell viability [11] [%] | cell viability [12] [%] | cell viability [13] [%] | cell viability [14] [%] | cell viability [15] [%] | cell viability [16] [%] | cell viability [17] [%] | cell viability [18] [%] | cell viability [19] [%] | cell viability [20] [%] | cell viability [21] [%] | cell viability [22] [%] | cell viability [23] [%] | cell viability [24] [%] | cell viability [25] [%] | cell viability [26] [%] | cell viability [27] [%] | cell viability [28] [%] | cell viability [29] [%] | cell viability [30] [%] | cell viability [31] [%] | cell viability [32] [%] | cell viability [33] [%] |
| --- | --- | --- | --- | --- | --- | --- | --- | --- | --- | --- | --- | --- | --- | --- | --- | --- | --- | --- | --- | --- | --- | --- | --- | --- | --- | --- | --- | --- | --- | --- | --- | --- | --- |
| COC(=O)Nc1ccc(-c2nc(N3CCOCC3)c3cnn(C4CCN(Cc5cccnc5)CC4)c3n2)cc1 | 113 | 117 | 112 | 113 | 109 | 96.2 | 83.5 | 83.6 | 51.1 | 31.9 | 12.9 | 106 | 111 | 102 | 103 | 98.3 | 69.9 | 61 | 61.4 | 43.1 | 32.4 | 24.7 | 113 | 118 | 114 | 116 | 100 | 72.3 | 65.2 | 59.8 | 53.1 | 43.5 | 6.49 |
| Nc1nc(Nc2ccc([S+](N)(=O)[O-])cc2)nn1C(=O)c1c(F)cccc1F | 104 | 109 | 103 | 106 | 112 | 110 | 106 | 112 | 90.7 | 101 | 21.5 | 107 | 106 | 110 | 113 | 104 | 105 | 111 | 101 | 83.7 | 81.7 | 23.1 | 111 | 106 | 105 | 107 | 114 | 115 | 109 | 108 | 84.9 | 86.6 | 24.3 |
| CN[C@H]1[C@H](O[C@@H]2[C@H](O[C@@H]3[C@@H](O)[C@@H](O)[C@@H](NC(=N)N)[C@@H](O)[C@H]3NC(=N)N)O[C@H](C)[C@@]2(O)C=O)O[C@@H](CO)[C@@H](O)[C@H]1O | 117 | 117 | 120 | 108 | 112 | 115 | 110 | 110 | 99.9 | 108 | 111 | 108 | 109 | 107 | 112 | 120 | 122 | 102 | 95.5 | 94.7 | 97.8 | 103 | 118 | 115 | 136 | 123 | 112 | 105 | 89.3 | 86 | 105 | 104 | 116 |
| CCNC(=O)Nc1ccc(-c2nc3c(c(N4CCOC[C@@H]4C)n2)CCN(C2COC2)C3)cc1 | 114 | 111 | 113 | 112 | 110 | 100 | 82.1 | 63.8 | 56.6 | 49.5 | 46.1 | 113 | 113 | 107 | 116 | 104 | 96.8 | 82.7 | 61.6 | 55.4 | 41.3 | 33.9 | 114 | 108 | 111 | 106 | 103 | 95.8 | 79.3 | 64.1 | 54.6 | 39.9 | 32.7 |
| CO[C@H]1/C=C/O[C@@]2(C)Oc3c(C)c(O)c4c(O)c(c(/C=N\N5CCN(C6CCCC6)CC5)c(O)c4c3C2=O)NC(=O)/C(C)=C\C=C\[C@H](C)[C@H](O)[C@@H](C)[C@@H](O)[C@@H](C)[C@H](OC(C)=O)[C@@H]1C | 112 | 122 | 117 | 109 | 104 | 98.2 | 98.2 | 71.5 | 19.8 | 1.51 | -0.607 |  | 87.9 | 93.7 | 78.7 | 70.7 | 70.7 | 68 | 51.8 | 5.83 | 0.395 | -0.516 | 101 | 111 |  | 87.7 | 84.1 | 74.6 | 85.2 | 61.8 | 13.6 | 5.16 | 0.889 |
| CN(c1nccc(=O)[nH]1)C1CCN(c2nc3ccccc3n2Cc2ccc(F)cc2)CC1 | 108 | 104 | 109 | 110 | 111 | 119 | 118 | 118 | 114 | 112 | 110 | 113 | 110 | 101 | 114 | 124 | 111 | 116 | 109 | 115 | 115 | 123 | 100 | 108 | 109 | 108 | 125 | 113 | 121 | 112 | 123 | 119 | 112 |
| O=C(O)[C@@H](c1ccc(OCc2ccc3ccccc3n2)cc1)C1CCCC1 | 113 | 114 | 106 | 109 | 109 | 102 | 107 | 99.6 | 106 | 102 | 98.7 | 116 | 116 | 110 | 110 | 102 | 106 | 107 | 107 | 92.8 | 98 | 96.9 | 108 | 112 | 112 | 113 | 108 | 109 | 106 | 101 | 95.8 | 102 | 100 |
| CCCC1=N[N](C)C2=C1\N=C(/NC2=O)C3=CC(=CC=C3OCC)[S+]([O-])(=O)N4CCN(C)CC4 | 82.3 | 92.6 | 89.5 | 88.6 | 90.7 | 89.5 | 88.2 | 80.4 | 86.5 | 84 | 50.7 | 81.4 | 87.3 | 89.2 | 80.9 | 77.5 | 87.6 | 84.1 | 82.1 | 85.2 | 82.4 | 20.7 | 81.4 | 84.5 | 80.8 | 86.6 | 82.5 | 86.8 | 79.7 | 85.1 | 77.8 | 79.2 | 33.1 |
| CN1C2=CC(=O)/C(=N/NC(N)=O)C=C2CC1S(=O)(=O)[O-].[Na+] (stereo unspecified) | 105 | 112 | 112 | 112 | 108 | 113 | 115 | 115 | 110 | 112 | 112 | 103 | 112 | 108 | 112 | 109 | 118 | 118 | 115 | 113 | 112 | 106 | 105 | 108 | 105 | 108 | 111 | 113 | 123 | 112 | 110 | 117 | 110 |
| O=C(O)CSCC(=O)NC1CCSC1=O (stereo unspecified) | 108 | 108 | 112 | 120 | 120 | 129 | 110 | 114 | 117 | 115 | 116 | 106 | 108 | 114 | 130 | 123 | 114 | 115 | 116 | 111 | 116 | 118 | 103 | 110 | 114 | 114 | 117 | 116 | 115 | 112 | 106 | 127 | 111 |
| CN1\N=N/C2=C(N=C[N]2C1=O)C(N)=O | 127 | 124 | 125 | 121 | 128 | 125 | 134 | 127 | 128 | 115 | 88.8 |  |  |  |  |  |  |  |  |  |  |  |  |  |  |  |  |  |  |  |  |  |  |
| O=C1CCC[C@@H]2[C@H]3CCC[N+]4([O-])CCC[C@@H](CN12)[C@@H]34 (stereo partly specified) | 88.3 | 89.2 | 100 | 102 | 98.8 | 92.9 | 105 | 102 | 89.5 | 98.6 | 97.7 | 83.5 | 80.8 | 89.7 | 95.1 | 95.5 | 97.2 | 87.7 | 94.7 | 87.3 | 99.9 | 88 | 78.2 | 84.9 | 94.1 | 94 | 93 | 83.5 | 81.4 | 90.8 | 90 | 89.6 | 89.2 |
| COc1cc(NC(=O)c2ccc(-c3ccc(Cl)cc3)o2)cc(OC)c1 | 93.8 | 111 | 110 | 112 | 115 | 109 | 111 | 111 | 101 | 99.2 | 104 | 97.4 | 105 | 100 | 115 | 108 | 115 | 108 | 117 | 101 | 99.5 | 95.5 | 84 | 107 | 114 | 113 | 112 | 107 | 115 | 104 | 101 | 94.3 | 104 |
| CN(C)CC[C@H](CSc1ccccc1)Nc1ccc([S+](=O)([O-])NC(=O)c2ccc(N3CCN(Cc4ccccc4-c4ccc(Cl)cc4)CC3)cc2)cc1[N+](=O)[O-] | 118 | 123 | 120 | 110 | 115 | 97.8 | 85.4 | 56.7 | 14.9 | 7.53 | 4.59 | 127 | 116 | 116 | 115 | 120 | 115 | 108 | 79.9 | 24.2 | 12.5 | 4.92 | 124 | 128 | 124 | 124 | 119 | 117 | 95.5 | 76.1 | 15.8 | 8.77 | 4.13 |
| CCN1\C=C(C(O)=O)/C(=O)C2=C1C=C(N3CCN(C)CC3)C(=C2)F | 117 | 118 | 114 | 107 | 116 | 113 | 108 | 105 | 90.7 | 77.5 | 71.5 | 110 | 116 | 117 | 108 | 117 | 120 | 108 | 112 | 84 | 73.9 | 69.1 | 110 | 121 | 112 | 121 | 109 | 123 | 108 | 104 | 83.1 | 69.1 | 61.9 |
